In PubChem BioAssay (NCI):
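Tested at 5 concentrations; 48 h exposure; 96-well plates; endpoints linearly interpolated, else capped at highest concentration. The concentration for 50% growth inhibition is given as GI50. The concentration for full growth arrest is given as TGI.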

Legend:
Test in all cases: growth of human tumour cells (NCI), 48 h
[1] = tested on: HS 578T breast
[2] = tested on: CAKI-1 renal
[3] = tested on: SK-MEL-2 melanoma
[4] = tested on: CCRF-CEM leukemia
[5] = tested on: OVCAR-3 ovarian
[6] = tested on: RXF 393 renal
[7] = tested on: A498 renal
[8] = tested on: PC-3 prostate
[9] = tested on: SNB-19 CNS
[10] = tested on: A549 NSCLC
[11] = tested on: KM12 colon
[12] = tested on: COLO 205 colon
[13] = tested on: SN12C renal
[14] = tested on: T-47D breast
[15] = tested on: M14 melanoma
[16] = tested on: 786-0 renal
[17] = tested on: MDA-MB-231 breast
[18] = tested on: SF-539 CNS
[19] = tested on: SF-295 CNS
[20] = tested on: MCF7 breast
[21] = tested on: UACC-257 melanoma
[22] = tested on: BT-549 breast
[23] = tested on: IGROV1 ovarian
[24] = tested on: HOP-92 NSCLC
[25] = tested on: UACC-62 melanoma
[26] = tested on: EKVX NSCLC
[27] = tested on: SW-620 colon
[28] = tested on: NCI/ADR-RES ovarian

SMILES: CN1CCN(c2c(F)cc(NC3=C(Cl)C(=O)c4ncccc4C3=O)cc2F)CC1
- GI50 [1]: 11.2 µM
- TGI [1]: 56.4 µM
- GI50 [2]: 1.45 µM
- TGI [2]: 2.77 µM
- GI50 [3]: 13.7 µM
- TGI [3]: 28 µM
- GI50 [4]: 2.24 µM
- TGI [4]: 22 µM
- GI50 [5]: 0.303 µM
- TGI [5]: 1.37 µM
- GI50 [6]: 1.67 µM
- TGI [6]: 3.31 µM
- GI50 [7]: 13.4 µM
- TGI [7]: 29.2 µM
- GI50 [8]: 5.87 µM
- TGI [8]: 21.1 µM
- GI50 [9]: 17.1 µM
- TGI [9]: 31.1 µM
- GI50 [10]: 18 µM
- TGI [10]: 35.4 µM
- GI50 [11]: 16.5 µM
- TGI [11]: 33 µM
- GI50 [12]: 2.14 µM
- TGI [12]: 4.82 µM
- GI50 [13]: 3.22 µM
- TGI [13]: 13.2 µM
- GI50 [14]: 1.95 µM
- TGI [14]: 5.04 µM
- GI50 [15]: 4.34 µM
- TGI [15]: 15.3 µM
- GI50 [16]: 1.84 µM
- TGI [16]: 3.44 µM
- GI50 [17]: 3.47 µM
- TGI [17]: 12.3 µM
- GI50 [18]: 15.7 µM
- TGI [18]: 29.1 µM
- GI50 [19]: 17.2 µM
- TGI [19]: 33.5 µM
- GI50 [20]: 2.04 µM
- TGI [20]: 5.35 µM
- GI50 [21]: 1.68 µM
- TGI [21]: 3.39 µM
- GI50 [22]: 12.9 µM
- TGI [22]: 25.9 µM
- GI50 [23]: 2.92 µM
- TGI [23]: 11.5 µM
- GI50 [24]: 1.55 µM
- TGI [24]: 3.22 µM
- GI50 [25]: 14.8 µM
- TGI [25]: 28 µM
- GI50 [26]: 14.9 µM
- TGI [26]: 33.4 µM
- GI50 [27]: 1.76 µM
- TGI [27]: 3.82 µM
- GI50 [28]: 17.9 µM
- TGI [28]: 49.3 µM
